Active and inactive are the calls of the source. The rule behind the calls is not given here.

Assay type in all cases: nucleic-acid assay
For assay [1], the system named is Nucleic Acid. The assay can be described thus: Binding affinity to 5'-AAAAT-3' sequence of Escherichia coli 81-mer duplex pBR322 fragment after 60 mins by DNase I footprinting.
Assay [2] has as its system Nucleic Acid. The assay can be described thus: Binding affinity to 5'-TT-3' sequence of Escherichia coli 135-mer duplex pBR322 fragment at 1 to 3000 nM after 60 mins by DNase I footprinting.
Assay [3] has as its system Nucleic Acid. Put plainly: Binding affinity to 5'-TTTTCTCCT-3' sequence of Escherichia coli 135-mer duplex pBR322 fragment after 60 mins by DNase I footprinting.
Assay [4] concerns Nucleic Acid. The assay can be described thus: Binding affinity to 11-mer duplex 3A-3T DNA minor groove at peptide to duplex ratio of 2:1 after 60 mins by circular dichroism spectroscopy. (In general: Circular dichroism is widely used to follow secondary structure.)
For assay [5], the system named is Nucleic Acid. Put plainly: Binding affinity to 11-mer duplex 4A-4T DNA minor groove at peptide to duplex ratio of 2:1 after 60 mins by circular dichroism spectroscopy.
The test system of assay [6] is Nucleic Acid. The assay can be described thus: Binding affinity to 5'-TTTTCTC-3' sequence of Escherichia coli 81-mer duplex pBR322 fragment after 60 mins by DNase I footprinting.
The subject of assay [7] is Nucleic Acid. The assay can be described thus: Binding affinity to 5'-TTTTCTCCT-3' sequence of Escherichia coli 135-mer duplex pBR322 fragment at 1 to 3000 nM after 60 mins by DNase I footprinting.
Assay [8] concerns Nucleic Acid. The assay can be described thus: Binding affinity to 5'-AATACC-3' sequence of Escherichia coli 158-mer duplex pBR322 fragment after 60 mins by DNase I footprinting.
Assay [9] deals with Nucleic Acid. The assay can be described thus: Binding affinity to d(AAAA)-d(TTTT) sequence of Escherichia coli 158-mer duplex pBR322 fragment assessed as allosteric interaction after 60 mins by DNase I footprinting.
In assay [10] the test system is Nucleic Acid. The assay can be described thus: Binding affinity to 5'-AATACC-3' sequence of Escherichia coli 158-mer duplex pBR322 fragment at 1 to 3000 nM after 60 mins by DNase I footprinting.
The test system of assay [11] is Nucleic Acid. Put plainly: Binding affinity to 11-mer duplex 4A-4T DNA at 0.2 uM after 60 mins by circular dichroism spectroscopy.
Assay [12] has as its system Nucleic Acid. Put plainly: Binding affinity to 11-mer duplex 3A-3T DNA at 0.2 to 7 uM after 60 mins by circular dichroism spectroscopy.
Assay [13] concerns Nucleic Acid. Put plainly: Binding affinity to 11-mer duplex 4A-4T DNA after 60 mins by circular dichroism spectroscopy.
Assay [14] relates to Nucleic Acid. The assay can be described thus: Binding affinity to 5'-TT-3' sequence of Escherichia coli 135-mer duplex pBR322 fragment after 60 mins by DNase I footprinting.
Assay [15] concerns Nucleic Acid. Put plainly: Binding affinity to 5'-GAAAATA-3' sequence of Escherichia coli 158-mer duplex pBR322 fragment at 1 to 3000 nM after 60 mins by DNase I footprinting.
Assay [16] has as its system Nucleic Acid. The assay can be described thus: Binding affinity to 5'-GAAAATA-3' sequence of Escherichia coli 158-mer duplex pBR322 fragment after 60 mins by DNase I footprinting.
Assay [17] has as its system Nucleic Acid. The assay can be described thus: Binding affinity to 5'-TT-3' sequence of Escherichia coli 135-mer duplex pBR322 fragment at 50 to 2000 nM after 60 mins by DNase I footprinting.
Assay [18] relates to Nucleic Acid. The assay can be described thus: Binding affinity to d(AAA)-d(TTT) sequence of Escherichia coli 135-mer duplex pBR322 fragment assessed as allosteric interaction after 60 mins by DNase I footprinting.
In assay [19] the test system is Nucleic Acid. The assay can be described thus: Binding affinity to 5'-AGAAAATAC-3' sequence of Escherichia coli 158-mer duplex pBR322 fragment at 10 to 2000 nM after 60 mins by DNase I footprinting.
Assay [20] has as its system Nucleic Acid. The assay can be described thus: Binding affinity to 5'-AATAC-3' sequence of Escherichia coli 158-mer duplex pBR322 fragment at 10 to 2000 nM after 60 mins by DNase I footprinting.
The subject of assay [21] is Nucleic Acid. Put plainly: Binding affinity to 5'-TTTCTCCT-3' sequence of Escherichia coli 135-mer duplex pBR322 fragment at 50 to 2000 nM after 60 mins by DNase I footprinting.
Assay [22] relates to Nucleic Acid. Put plainly: Binding affinity to 5'-AGAAAATAC-3' sequence of Escherichia coli 158-mer duplex pBR322 fragment after 60 mins by DNase I footprinting.
Assay [23] deals with Nucleic Acid. Put plainly: Binding affinity to 5'-TTTCT-3' sequence of Escherichia coli 81-mer duplex pBR322 fragment after 60 mins by DNase I footprinting.
The test system of assay [24] is Nucleic Acid. Put plainly: Binding affinity to 5'-AATAC-3' sequence of Escherichia coli 158-mer duplex pBR322 fragment after 60 mins by DNase I footprinting.
The subject of assay [25] is Nucleic Acid. Put plainly: Binding affinity to 5'-TTTCTCCT-3' sequence of Escherichia coli 135-mer duplex pBR322 fragment after 60 mins by DNase I footprinting.
In assay [26] the test system is Nucleic Acid. The assay can be described thus: Binding affinity to 11-mer duplex 4A-4T DNA at 0.2 to 7 uM after 60 mins by circular dichroism spectroscopy.
The subject of assay [27] is Nucleic Acid. Put plainly: Binding affinity to 5'-TTT-3' sequence of Escherichia coli 135-mer duplex pBR322 fragment after 60 mins by DNase I footprinting.
For assay [28], the system named is Nucleic Acid. Put plainly: Binding affinity to 5'-AATACCG-3' sequence of Escherichia coli 158-mer duplex pBR322 fragment at 1 to 3000 nM after 60 mins by DNase I footprinting.
The subject of assay [29] is Nucleic Acid. The assay can be described thus: Binding affinity to 5'-AGAAAATACCG-3' sequence of Escherichia coli 158-mer duplex pBR322 fragment after 60 mins by DNase I footprinting.
In assay [30] the test system is Nucleic Acid. Put plainly: Binding affinity to 5'-TTTCTCC-3' sequence of Escherichia coli 135-mer duplex pBR322 fragment at 1 to 3000 nM after 60 mins by DNase I footprinting.
The test system of assay [31] is Nucleic Acid. Put plainly: Binding affinity to 5'-AGAAAATACCG-3' sequence of Escherichia coli 158-mer duplex pBR322 fragment at 1 to 3000 nM after 60 mins by DNase I footprinting.
Assay [32] concerns Nucleic Acid. The assay can be described thus: Binding affinity to 5'-TTT-3' sequence of Escherichia coli 135-mer duplex pBR322 fragment at 12 nM after 60 mins by DNase I footprinting.
Assay [33] deals with Nucleic Acid. The assay can be described thus: Binding affinity to 5'-TTTCTCC-3' sequence of Escherichia coli 135-mer duplex pBR322 fragment after 60 mins by DNase I footprinting.
Assay [34] deals with Nucleic Acid. Put plainly: Binding affinity to 5'-AATACCG-3' sequence of Escherichia coli 158-mer duplex pBR322 fragment after 60 mins by DNase I footprinting.

In the case of `Cn1cc(NC(=O)c2cc(NC(=O)[C@@H](CCCCN)NC(=O)[C@H](CCCNC(=N)N)NC(=O)[C@@H]3C[C@@H](O)CN3C(=O)[C@@H](N)Cc3cnc[nH]3)cn2C)cc1C(=O)Nc1cc(C(=O)N[C@@H](CCCCN)C(=O)N[C@@H](CCCNC(=N)N)C(N)=O)n(C)c1`, the Ka in the assay with Nucleic Acid [1] was determined as 2.1 ×10⁶ /M; with Nucleic Acid [3], 2.2 ×10⁶ /M; with Nucleic Acid [6], 1.9 ×10⁶ /M; in the assay with Nucleic Acid [8], 2.5 ×10⁶ /M; in the assay with Nucleic Acid [14] it was 2.7 ×10⁶ /M; with Nucleic Acid [16] it was 3.8 ×10⁶ /M. In addition, the outcome in the assay with Nucleic Acid [2], with Nucleic Acid [4], with Nucleic Acid [5], with Nucleic Acid [7], in the assay on Nucleic Acid [9] and in the assay with Nucleic Acid [10] was Active. In addition, the result in the assay with Nucleic Acid [11], with Nucleic Acid [12], with Nucleic Acid [15] and in the assay on Nucleic Acid [18] was Active. For the same molecule, in the assay with Nucleic Acid [13], the Activity entry was “Dose-dependent effect”. For the same molecule, the outcome with Nucleic Acid [17] was inactive.
Consider `Cn1cc(NC(=O)c2cc(NC(=O)[C@@H](CCCCN)NC(=O)[C@H](CCCNC(=N)N)NC(=O)[C@@H]3C[C@@H](O)CN3C(=O)[C@@H](N)Cc3cnc[nH]3)cn2C)cc1C(=O)Nc1cc(C(=O)Nc2cc(C(=O)N[C@@H](Cc3cnc[nH]3)C(=O)N3C[C@H](O)C[C@H]3C(=O)N[C@@H](CCCNC(=N)N)C(=O)N[C@@H](CCCCN)C(N)=O)n(C)c2)n(C)c1`, for which the Ka came to 1.4 ×10⁶ /M with Nucleic Acid [1]; 3.4 ×10⁶ /M with Nucleic Acid [22]; 2.5 ×10⁶ /M in the assay on Nucleic Acid [23]; 2.5 ×10⁶ /M with Nucleic Acid [24]; 3.4 ×10⁶ /M with Nucleic Acid [25]. For the same molecule, the outcome in the assay with Nucleic Acid [4], in the assay with Nucleic Acid [5], in the assay with Nucleic Acid [19], in the assay with Nucleic Acid [20], in the assay with Nucleic Acid [21] and with Nucleic Acid [9] was Active. Moreover, the result in the assay on Nucleic Acid [12], in the assay with Nucleic Acid [18] and in the assay with Nucleic Acid [26] was Active.
As for `Cn1cc(NC(=O)c2cc(NC(=O)[C@@H](CCCCN)NC(=O)[C@H](CCCNC(=N)N)NC(=O)[C@@H]3CCCN3C(=O)[C@@H](N)Cc3cnc[nH]3)cn2C)cc1C(=O)Nc1cc(C(=O)Nc2cc(C(=O)N[C@@H](Cc3cnc[nH]3)C(=O)N3CCC[C@H]3C(=O)N[C@@H](CCCNC(=N)N)C(=O)N[C@@H](CCCCN)C(N)=O)n(C)c2)n(C)c1`, the Ka in the assay on Nucleic Acid [27] is 3.7 ×10⁶ /M; in the assay with Nucleic Acid [29], 3.2 ×10⁶ /M; in the assay with Nucleic Acid [33], 3.8 ×10⁶ /M; in the assay on Nucleic Acid [34] it was 6.7 ×10⁷ /M. Besides, the outcome with Nucleic Acid [28], in the assay with Nucleic Acid [30], in the assay with Nucleic Acid [9], with Nucleic Acid [31], in the assay on Nucleic Acid [32] and in the assay with Nucleic Acid [18] was Active.

(Values after ChEMBL document CHEMBL1157672, “Detection of multiple network-based allosteric interactions between peptides and arrays of DNA binding sites” (Bioorg Med Chem, 2010).)
